Experimental data published in PMC9873307, “Methylone, a rapid acting entactogen with robust anxiolytic and antidepressant-like activity” (Frontiers in Psychiatry, 2023).
Read-outs that look alike come from different tables or passages of the source.

What was measured:
[1] = parameters: method as in PMID 10080230; conditions: cited from earlier work
[2] = cited from earlier work; for reduced immobility in the FST: FST literature
male Sprague Dawley rats [3] = assay: Forced swim test (FST); type: in vivo, rat; conditions: for swimming vs vehicle: Figure 3G
Procedure: (§1) Male Sprague Dawley rats (Charles River Laboratories) weighing 180–200 g on arrival, were used for all behavioral studies, which took place at Melior Discovery (Exton, PA, USA). Rats acclimated to their home cages for at least 1 week before testing, were maintained in a controlled environment on a 12 h light/dark cycle, with no more than 2 rats per cage. Animals received ad libitum access to standard rodent chow and water and were assigned randomly to treatment groups. All animal use and procedures were in accordance with established protocols approved by the Melior IACUC committee, Melior Standard Operation Procedures (SOP), and Transcend Therapeutics. Distinct cohorts of animals were used for each experiment/Figure presented in this manuscript.
(§2) Methylone HCl (0.5–30 mg/kg; Cayman Chemical) or Fluoxetine HCl (10 mg/kg; Sigma-Aldrich) were formulated in sterile 0.9% saline vehicle before IP administration. Control animals received saline vehicle. Methylone or saline was administered 30 min prior to FST or OFT testing sessions. Fluoxetine or saline were administered 23.5, 5, and 1 h prior to testing, consistent with previous studies ([19]).
All studies were performed and scored by an experimenter blind to treatment group according to standard protocols at Melior Discovery (Exton, PA, USA) and based on published “modified FST” procedures ([20]). Briefly, rats were placed in a circular plexiglass container (29.2 cm diameter, 49.5 cm height) filled with water to a depth of 30 cm so rats could not support themselves by touching the bottom of the tank. Water was maintained at 22–25°C and was changed for every animal. Day 1 (Training) consisted of a 15 min acclimation trial, and Day 2 (Testing, 24 h later) consisted of the 5 min test. A time sampling procedure was employed where animals were observed every 5 s for the duration of the test session (60 counts or 5 min) and scored for immobility (defined as the failure to struggle), swimming (defined as a circular movement around the tank), or climbing (defined as an upward escape behavior). Data are expressed as the percent time spent immobile, swimming, or climbing for the 5-min testing session (e.g., the number of immobility counts divided by 60). Therefore, to extrapolate these values to time spent immobile in minutes, one can multiply the percent time immobile by 5 min.

male Sprague Dawley rats [4] = assay: Open field test (OFT): locomotor activity and time in center; type: in vivo, rat
Procedure: as §1, §2
All studies were performed by an experimenter blind to treatment group and according to standard protocols at Melior Discovery (Exton, PA, USA). The OFT was used to assess both locomotor activity and anxiety-like behavior. The OFT was run in a standard rat OFA chamber (17 ^^′′ × 17 ^^′′ × 12 ^^′′ , Med Associates). After habituation to the testing room and drug injection, rats were assessed for 30 min in the OFT using an automated activity monitoring system (MedAssociates). Locomotor activity was measured by recording the total ambulatory distance traveled (cm), reported in 5-min bins for the duration of the 30 min testing period. The center of the open field was defined as a 12 ^^′′ square, a predefined center setting on the MedAssociates analysis software. Time spent in the center of the open field, an anxiolytic measure, was also recorded for the 30 min testing period.

Compound: CNC(C)Cc1ccc2c(c1)OCO2 (stereo not shown) [MDMA, 3,4-methylenedioxymethamphetamine]
- effect on anxiety ([1]; clinically relevant doses): no effect
- effect on anxiety ([1]; higher doses): anxiogenic
- reduced immobility in the FST [2]: 47–78%
- reduction of immobility compared to vehicle controls ([2]; FST): 47–78%

Compound: CN[C@H]1CC[C@@H](c2ccc(Cl)c(Cl)c2)c2ccccc21 [sertraline]
- reduced immobility in the FST [2]: 50–68%

Compound: CNCCCN1c2ccccc2CCc2ccccc21 [desipramine]
- reduced immobility in the FST [2]: 55–75%

Compound: CNC1(c2ccccc2Cl)CCCCC1=O (stereo not shown) [ketamine]
- reduced immobility in the FST [2]: 25–62%

Compound: Fc1ccc([C@@H]2CCNC[C@H]2COc2ccc3c(c2)OCO3)cc1 [paroxetine]
- reduced immobility in the FST [2]: 40%

Compound: CNCCC(Oc1ccc(C(F)(F)F)cc1)c1ccccc1 (stereo not shown) [fluoxetine, reference compound]
- climbing behavior vs controls (male Sprague Dawley rats [3]; fluoxetine 10 mg/kg IP x3, Figure 1E): unaffected
- swimming behavior vs controls (male Sprague Dawley rats [3]; fluoxetine 10 mg/kg IP x3, Figure 1G): significantly increased
- climbing vs vehicle on retest (male Sprague Dawley rats [3]; fluoxetine 10 mg/kg IP x3, 1 h, 24, 72 h, Figure 3E): no effect on climbing
- swimming vs vehicle (male Sprague Dawley rats [3]; fluoxetine 10 mg/kg IP x3, 1 h post-dose): significantly increased swimming
- swimming vs vehicle (male Sprague Dawley rats [3]; fluoxetine 10 mg/kg IP x3, 24 h post-dose): small but significant increase in swimming
- immobility vs vehicle on retest (male Sprague Dawley rats [3]; fluoxetine 10 mg/kg IP x3, tested 1 h, retested 24 and 72 h later, Figure 3C): only showed a significant effect on immobility 1 h post-dose
- reduction/change in immobility vs vehicle control (male Sprague Dawley rats [3]; fluoxetine 10 mg/kg IP, three doses 23.5, 5, 1 h before testing): 50%
- swimming compared to vehicle (male Sprague Dawley rats [3]; fluoxetine 10 mg/kg x3 alone or with methylone 5 mg/kg, Figure 6D): significantly increased swimming
- duration of reduction in immobility (male Sprague Dawley rats [3]; fluoxetine 10 mg/kg, three doses within 24 h before testing): less than 24 h
- reduced immobility in the FST [2]: 56%
- distance traveled, first 5 min (male Sprague Dawley rats [4]; fluoxetine 10 mg/kg IP x3, 1 h post-dose, Figure 4B): reduced distance traveled
- distance traveled over 30-min session, 5-min bins (male Sprague Dawley rats [4]; fluoxetine 10 mg/kg IP x3, Figure 4E): reduced distance traveled in the OFT for the first 15 min
- time spent in the center (male Sprague Dawley rats [4]; fluoxetine 10 mg/kg IP x3, Figure 5B): significantly reduced time spent in the center

Compound: CN(C)CCc1c[nH]c2cccc(OP(=O)(O)O)c12 [psilocybin]
- reduced immobility in the FST [2]: 67%
